Source: US10385048B2, “Pesticidally active polycyclic derivatives with sulfur containing substituents” (Syngenta Participations AG, priority 2014, dated 2019)

Legend:
Type in all cases: in vivo
Bemisia tabaci = Bemisia tabaci (cotton white fly) feeding/contact activity, cotton leaf discs; settings: foliar, 144 h, application rate 200 ppm, adult white flies, 6 days after incubation
Experimental: Example B1: Bemisia tabaci (Cotton White Fly): Feeding/Contact Activity
Cotton leaf discs were placed on agar in 24-well microtiter plates and sprayed with aqueous test solutions prepared from 10′000 ppm DMSO stock solutions. After drying the leaf discs were infested with adult white flies. The samples were checked for mortality 6 days after incubation.

Diabrotica Balteata = test: Diabrotica balteata (corn root worm), maize sprouts, L2 larvae; settings: 96 h, application rate 200 ppm, 4 days after infestation, read-out: effect in at least one of the two categories (mortality or growth inhibition)
Experimental: Example B2: Diabrotica Balteata (Corn Root Worm)
Maize sprouts placed onto an agar layer in 24-well microtiter plates were treated with aqueous test solutions prepared from 10′000 ppm DMSO stock solutions by spraying. After drying, the plates were infested with L2 larvae (6 to 10 per well). The samples were assessed for mortality and growth inhibition in comparison to untreated samples 4 days after infestation.

Euschistus heros = Euschistus heros (neotropical brown stink bug), soybean leaves, N2 nymphs; settings: 120 h, application rate 200 ppm, 5 days after infestation, read-out: effect in at least one of the two categories (mortality or growth inhibition)
Experimental: Example B3: Euschistus heros (Neotropical Brown Stink Bug)
Soybean leaves on agar in 24-well microtiter plates were sprayed with aqueous test solutions prepared from 10′000 ppm DMSO stock solutions. After drying the leaves were infested with N2 nymphs. The samples were assessed for mortality and growth inhibition in comparison to untreated samples 5 days after infestation.

[1] = test system: Frankliniella occidentalis; test: Frankliniella occidentalis (western flower thrips) feeding/contact activity, sunflower leaf discs; settings: foliar, 168 h, application rate 200 ppm, population of mixed ages, 7 days after infestation
Experimental: Example B4: Frankliniella occidentalis (Western Flower Thrips): Feeding/Contact Activity
Sunflower leaf discs were placed on agar in 24-well microtiter plates and sprayed with aqueous test solutions prepared from […] stock solutions. After drying the leaf discs were infested with a Frankliniella population of mixed ages. The samples were assessed for mortality 7 days after infestation.

Myzus persicae [2] = test: Myzus persicae (green peach aphid) feeding/contact activity, sunflower leaf discs; settings: foliar, 144 h, application rate 200 ppm, 6 days after infestation
Experimental: Example B5: Myzus persicae (Green Peach Aphid): Feeding/Contact Activity
Sunflower leaf discs were placed onto agar in a 24-well microtiter plate and sprayed with aqueous test solutions prepared from 10′000 ppm DMSO stock solutions. After drying, the leaf discs were infested with an aphid population of mixed ages. The samples were assessed for mortality 6 days after infestation.

Myzus persicae [3] = test: Myzus persicae (green peach aphid) systemic activity, pea seedling roots; settings: 144 h, test rate 24 ppm, 6 days after placing seedlings into test solutions
Plutella xylostella = Plutella xylostella (diamond back moth), artificial diet, L2 larvae; settings: 120 h, application rate 200 ppm, 5 days after infestation, read-out: effect in at least one of the two categories (mortality or growth inhibition)
Experimental: Example B7: Plutella xylostella (Diamond Back Moth)
24-well microtiter plates with artificial diet were treated with aqueous test solutions prepared from 10′000 ppm DMSO stock solutions by pipetting. After drying, the plates were infested with L2 larvae (10 to 15 per well). The samples were assessed for mortality and growth inhibition in comparison to untreated samples 5 days after infestation.

Spodoptera littoralis [4] = test: Spodoptera littoralis (Egyptian cotton leaf worm), cotton leaf discs, L1 larvae; settings: foliar, 72 h, application rate 200 ppm, L1 larvae on cotton leaf discs, 3 days after infestation
Experimental: Example B8: Spodoptera littoralis (Egyptian Cotton Leaf Worm)
Cotton leaf discs were placed onto agar in 24-well microtiter plates and sprayed with aqueous test solutions prepared from 10′000 ppm DMSO stock solutions. After drying the leaf discs were infested with five L1 larvae. The samples were assessed for mortality, anti-feeding effect, and growth inhibition in comparison to untreated samples 3 days after infestation. Control of Spodoptera littoralis by a test sample is given when at least one of the categories mortality, anti-feedant effect, and growth inhibition is higher than the untreated sample.

Spodoptera littoralis [5] = test: Spodoptera littoralis (Egyptian cotton leaf worm), uptake by lettuce roots from agar, eggs; settings: 144 h, test rate 12.5 ppm, lettuce root uptake, 6 days after infestation, read-out: effect in at least one of the three categories (mortality, anti-feeding, or growth inhibition)
From the text: Example B9: Spodoptera littoralis (Egyptian Cotton Leaf Worm)
Test compounds were applied by pipette from 10′000 ppm DMSO stock solutions into 24-well plates and mixed with agar. Lettuce seeds were placed onto the agar and the multi well plate was closed by another plate which contained also agar. After 7 days the compound was absorbed by the roots and the lettuce grew into the lid plate. The lettuce leaves were then cut off into the lid plate. Spodoptera eggs were pipetted through a plastic stencil onto a humid gel blotting paper and the lid plate was closed with it. The samples were assessed for mortality, anti-feedant effect and growth inhibition in comparison to untreated samples 6 days after infestation.

Tetranychus urticae = Tetranychus urticae (two-spotted spider mite) feeding/contact activity, bean leaf discs; settings: foliar, 192 h, application rate 200 ppm, mixed population (mobile stages), 8 days after infestation
Experimental: Example B10: Tetranychus urticae (Two-Spotted Spider Mite): Feeding/Contact Activity
Bean leaf discs on agar in 24-well microtiter plates were sprayed with aqueous test solutions prepared from 10′000 ppm DMSO stock solutions. After drying the leaf discs were infested with a mite population of mixed ages. The samples were assessed for mortality on mixed population (mobile stages) 8 days after infestation.

Thrips tabaci = Thrips tabaci (onion thrips) feeding/contact activity, sunflower leaf discs; settings: foliar, 144 h, application rate 200 ppm, population of mixed ages, 6 days after infestation
Experimental: Example B11: Thrips tabaci (Onion Thrips) Feeding/Contact Activity
Sunflower leaf discs were placed on agar in 24-well microtiter plates and sprayed with aqueous test solutions prepared from 10′000 ppm DMSO stock solutions. After drying the leaf discs were infested with a thrips population of mixed ages. The samples were assessed for mortality 6 days after infestation.

Aedes aegypti = Aedes aegypti (yellow fever mosquito), dry deposit in 12 well plates, adult females; settings: application rate 200 ppm in ethanol, after 48 h and/or 24 h
Experimental: Example B12: Aedes aegypti (Yellow Fever Mosquito)
Test solutions, at an application rate of 200 ppm in ethanol, were applied to 12 well tissue culture plates. Once the deposits were dry, five, two to five day old adult female Aedes aegypti were added to each well, and sustained with a 10% sucrose solution in a cotton wool plug. Assessment of knockdown was made one hour after introduction, and mortality was assessed at 24 and 48 hours after introduction.

Anopheles stephensi = Anopheles stephensi (Indian malaria mosquito), dry deposit in 12 well plates, adult females; settings: application rate 200 ppm in ethanol, after 48 h and/or 24 h
Experimental: Example B13: Anopheles stephensi (Indian Malaria Mosquito)
Test solutions, at an application rate of 200 ppm in ethanol, were applied to 12 well tissue culture plates. Once the deposits were dry, five, two to five day old adult female Anopheles stephensi were added to each well, and sustained with a 10% sucrose solution in a cotton wool plug. Assessment of knockdown was made one hour after introduction, and mortality was assessed at 24 and 48 hours after introduction.

CCS(=O)(=O)c1cc(C(F)(F)F)cnc1-c1nc2cc(S(=O)(=O)C(F)(F)F)ncc2n1C [Compound P8, 2-[3-ethylsulfonyl-5-(trifluoromethyl)-2-pyridyl]-3-methyl-6-(trifluoromethylsulfonyl) imidazo[4,5-c]pyridine]
≥ 80%: mortality at 200 ppm (Bemisia tabaci) | percent effect (mortality or growth inhibition) at 200 ppm (Diabrotica Balteata) | percent effect (mortality or growth inhibition) at 200 ppm (Euschistus heros) | mortality at 200 ppm [1] | mortality at 200 ppm (Myzus persicae [2]) | mortality at 24 ppm (Myzus persicae [3]) | percent effect (mortality or growth inhibition) at 200 ppm (Plutella xylostella) | percent control (mortality, anti-feedant effect or growth inhibition) at 200 ppm (Spodoptera littoralis [4]) | percent effect (mortality, anti-feeding or growth inhibition) at 12.5 ppm (Spodoptera littoralis [5]) | mortality at 200 ppm (Tetranychus urticae) | mortality at 200 ppm (Thrips tabaci) | pest or weed control at 200 ppm (Aedes aegypti) | pest or weed control at 200 ppm (Anopheles stephensi)

CCS(=O)(=O)c1cc(C(F)(F)F)cnc1-c1nc2cc([S+]([O-])C(F)(F)F)ncc2n1C (stereo not shown) [Compound P9, 2-[3-ethylsulfonyl-5-(trifluoromethyl)-2-pyridyl]-3-methyl-6-(trifluoromethylsulfinyl) imidazo[4,5-c]pyridine]
≥ 80%: mortality at 200 ppm (Bemisia tabaci) | percent effect (mortality or growth inhibition) at 200 ppm (Diabrotica Balteata) | percent effect (mortality or growth inhibition) at 200 ppm (Euschistus heros) | mortality at 200 ppm [1] | mortality at 200 ppm (Myzus persicae [2]) | mortality at 24 ppm (Myzus persicae [3]) | percent effect (mortality or growth inhibition) at 200 ppm (Plutella xylostella) | percent control (mortality, anti-feedant effect or growth inhibition) at 200 ppm (Spodoptera littoralis [4]) | percent effect (mortality, anti-feeding or growth inhibition) at 12.5 ppm (Spodoptera littoralis [5]) | mortality at 200 ppm (Thrips tabaci) | pest or weed control at 200 ppm (Aedes aegypti) | pest or weed control at 200 ppm (Anopheles stephensi)

CCS(=O)(=O)c1cc(C(F)(F)F)cnc1-c1nc2cc(SC(F)(F)F)ncc2n1C [Compound P10, 2-[3-ethylsulfonyl-5-(trifluoromethyl)-2-pyridyl]-3-methyl-6-(trifluoromethylsulfanyl)imidazo[4,5-c]pyridine]
≥ 80%: mortality at 200 ppm (Bemisia tabaci) | percent effect (mortality or growth inhibition) at 200 ppm (Diabrotica Balteata) | percent effect (mortality or growth inhibition) at 200 ppm (Euschistus heros) | mortality at 200 ppm [1] | mortality at 200 ppm (Myzus persicae [2]) | mortality at 24 ppm (Myzus persicae [3]) | percent effect (mortality or growth inhibition) at 200 ppm (Plutella xylostella) | percent control (mortality, anti-feedant effect or growth inhibition) at 200 ppm (Spodoptera littoralis [4]) | percent effect (mortality, anti-feeding or growth inhibition) at 12.5 ppm (Spodoptera littoralis [5]) | mortality at 200 ppm (Thrips tabaci) | pest or weed control at 200 ppm (Aedes aegypti) | pest or weed control at 200 ppm (Anopheles stephensi)
